Structures can show the parent of a compound that is named as a salt. Each block holds one compound with its values, some of them ahead of it.
Columns and labels:
Hygroscopicity at 90% RH = format: physicochemical; conditions: for Hygroscopity % (w/w) at 90% RH: Table 4, polymorphic forms of the free base
[1] = Solubility of the mesylate salt and free base forms; format: physicochemical
[2] = Moisture sorption at 30° C. and 45% RH; format: physicochemical
[3] = Water content of the hydrated form of the free base; format: physicochemical
Source text: The water content of the hydrated form of the free base (Form D) at ambient conditions is commonly of the order of 9 to 10% (w/w). This is equivalent to 2.5 to 2.8 moles of water per mole of the free base. […] The first mole was lost below 5% RH the second retained down to 1% RH see FIG. 11. It is likely that extended storage of the hydrated form below about 18% RH would result in dehydration. Furthermore, removal of the crystalline water results in the loss of the crystal lattice, the product being predominantly amorphous. This highlights a potential problem in using the conventional hydrated form in manufacturing a pharmaceutical formulation. Dehydration was observed on thermal analysis as a broad double endotherm at 97/113° C. (See FIG. 8)

[4] = tested on: male and female Sprague-Dawley rats; assay: Daily oral administration to rats for 1 month; format: in vivo; conditions: rat, 30 mg/kg for 1 month
[5] = Stability over a wide range of conditions; format: physicochemical; conditions: e.g. high light intensity

- Hygroscopity % (w/w) at 90% RH (Hygroscopicity at 90% RH; 90% RH): 2.2 % (w/w)
- Solubility ([1]; 0.9% sodium chloride at 22° C., listed as Free base (mpt 198° C.)): 36 micrograms/ml
- Solubility ([1]; Water at 22° C., listed as Free base (mpt 198° C.)): 420 micrograms/ml
- Moisture sorption (% w/w) at 30° C. and 45% RH ([2]; listed as Free base (mpt 198° C.)): 1.39 % w/w
Compound: COc1cc2nc(N3CCc4c(cccc4NS(C)(=O)=O)C3)nc(N)c2c(-c2ccccn2)c1OC [Form A, 4-Amino-6,7-dimethoxy-2-(5-methanesulfonamido-1,2,3,4-tetrahydroisoquinol-2-yl)-5-(2-pyridyl)quinazoline]

- Hygroscopity % (w/w) at 90% RH (Hygroscopicity at 90% RH; 90% RH): 0.27 % (w/w)
Compound: COc1cc2nc(N3CCc4c(cccc4NS(C)(=O)=O)C3)nc(N)c2c(-c2ccccn2)c1OC [Form B, 4-Amino-6,7-dimethoxy-2-(5-methanesulfonamido-1,2,3,4-tetrahydroisoquinol-2-yl)-5-(2-pyridyl)quinazoline]

- Water content ([3]; 90% RH): 12.8 % (w/w)
- Water content, moles of water ([3]; 90% RH): 3.6 moles of water
- Water content ([3]; ambient conditions): 9 to 10 % (w/w)
- Hygroscopity % (w/w) at 90% RH (Hygroscopicity at 90% RH; 90% RH): 12.8 % (w/w)
- Solubility ([1]; 0.9% sodium chloride at 22° C., listed as Hydrated form of free base): 4 micrograms/ml
- Solubility ([1]; Water at 22° C., listed as Hydrated form of free base): 12 micrograms/ml
- Moisture sorption (% w/w) at 30° C. and 45% RH ([2]; listed as Hydrated form of free base): 11.24 % w/w
Compound: COc1cc2nc(N3CCc4c(cccc4NS(C)(=O)=O)C3)nc(N)c2c(-c2ccccn2)c1OC [Form D, 4-Amino-6,7-dimethoxy-2-(5-methanesulfonamido-1,2,3,4-tetrahydroisoquinol-2-yl)-5-(2-pyridyl)quinazoline, reference compound]
- Water content, moles of water per mole of the free base ([3]; ambient conditions): 2.5 to 2.8 moles of water per mole of the free base

- Hygroscopity % (w/w) at 90% RH (Hygroscopicity at 90% RH; 90% RH): 0.045 % (w/w)
Compound: COc1cc2nc(N3CCc4c(cccc4NS(C)(=O)=O)C3)nc(N)c2c(-c2ccccn2)c1OC [Form E, 4-Amino-6,7-dimethoxy-2-(5-methanesulfonamido-1,2,3,4-tetrahydroisoquinol-2-yl)-5-(2-pyridyl)quinazoline]

- Hygroscopicity % (w/w) at 90% RH (Hygroscopicity at 90% RH; 90% RH, Table 1, mesylate salt): 1.1 % (w/w)
- Hygroscopicity compared with another form (Hygroscopicity at 90% RH; over a wide range of relative humidity, comparison in words): substantially lower than the free base
- Stability [5]: good stability
- Solubility ([1]; 0.9% sodium chloride at 22° C., mesylate): 120 micrograms/ml
- Solubility ([1]; Water at 22° C., mesylate): 880 micrograms/ml
- Moisture sorption (% w/w) at 30° C. and 45% RH ([2]; listed as Mesylate salt (mpt 279° C.), mesylate): 0.56 % w/w
Compound: COc1cc2nc(N3CCc4c(cccc4NS(C)(=O)=O)C3)nc(N)c2c(-c2ccccn2)c1OC [Mesylate salt, 4-amino-6,7-dimethoxy-2-(5-methanesulfonamido-1,2,3,4-tetrahydroisoquinol-2-yl)-5-(2-pyridyl)quinazoline mesylate]
- Adverse effects [4]: no evidence of adverse effects
- Changes linked to the pharmacological activity [4]: induced changes linked to the pharmacological activity of the compound

From patent publication US6683085B2, “Salt form and polymorphs” (Pfizer Inc., priority 2000, dated 2004)
